{
  "source": "patent US9181255B2",
  "about": "“Fused heteroaromatic pyrrolidinones as SYK inhibitors” (Takeda Pharmaceutical Company Limited, priority 2009, dated 2015)",
  "data": [
    {"target": "SYK (Homo sapiens, UniProt P43405)", "experiment": "SYK inhibition assay: SYK-mediated phosphorylation of FAM-labeled substrate (Caliper microfluidic)", "format": "biochemical", "conditions": "SYK kinase domain (residues 356-635); 5FAM-KKKKEEIYFFFG-NH2 substrate; ATP; RT 60 min; pIC50 = -log(IC50), IC50 molar", "values": [
      {"smiles": "N[C@H]1COCC[C@H]1Nc1nc(-c2cnn(C(F)F)c2)c2c(c1F)CNC2=O", "note": "[Example 93, 6-((3R,4R)-3-Aminotetrahydro-2H-pyran-4-ylamino)-4-(1-(difluoromethyl)-1H-pyrazol-4-yl)-7-fluoro-1H-pyrrolo[3,4-c]pyridin-3(2H)-one]", "SYK Inhibition (pIC50)": 8.0}
    ]},
    {"target": "SYK (Homo sapiens, UniProt P43405)", "experiment": "SYK inhibition assay: SYK-mediated phosphorylation of FAM-labeled substrate (Caliper microfluidic)", "format": "biochemical", "conditions": "read-out: SYK Inhibition (pIC50) (converted)", "units": {"IC50": "nM"}, "values": [
      {"smiles": "CCOC[C@H](N)CNc1cc2c(c(Nc3cccc(C)c3)n1)C(=O)NC2", "note": "[Example 54, (R)-6-(2-Amino-3-ethoxypropylamino)-4-(m-tolylamino)-1H-pyrrolo[3,4-c]pyridin-3(2H)-one]", "IC50": 251},
      {"smiles": "C=CC(=O)c1c(N[C@@H]2CCCC[C@@H]2N)nc(Nc2cccc(C)c2)c2c1CNC2=O", "note": "[Example 80, 7-Acryloyl-6-((1R,2S)-2-aminocyclohexylamino)-4-(m-tolylamino)-1H-pyrrolo[3,4-c]pyridin-3(2H)-one]", "IC50": 3160},
      {"smiles": "Cc1cccc(Nc2nc(N3CCCC(N)C3)nc3c2C(=O)NC3)c1", "note": "(centres unmarked) [Example 12, 2-(3-Aminopiperidin-1-yl)-4-(m-tolylamino)-6,7-dihydro-5H-pyrrolo[3,4-d]pyrimidin-5-one]", "IC50": 2000},
      {"smiles": "CCN1CCN(c2nc3c(c(Nc4cccc(C)c4)n2)C(=O)NC3)CC1", "note": "[Example 9, 2-(4-Ethylpiperazin-1-yl)-4-(m-tolylamino)-6,7-dihydro-5H-pyrrolo[3,4-d]pyrimidin-5-one]", "IC50": 7940},
      {"smiles": "Cn1cc(-c2nc(N[C@@H]3CCCC[C@@H]3N)cc3c2C(=O)NC3)cn1", "note": "[Example 26, 6-((1R,2S)-2-Aminocyclohexylamino)-4-(1-methyl-1H-pyrazol-4-yl)-1H-pyrrolo[3,4-c]pyridin-3(2H)-one]", "IC50": 31.6},
      {"smiles": "CCn1cc(-c2nc(N[C@@H]3CCCC[C@@H]3N)nc3c2C(=O)NC3)cn1", "note": "[Example 18, 2-((1R,2S)-2-Aminocyclohexylamino)-4-(1-ethyl-1H-pyrazol-4-yl)-6,7-dihydro-5H-pyrrolo[3,4-d]pyrimidin-5-one]", "IC50": 79.4},
      {"smiles": "Cc1cccc(Nc2nc(N[C@@H]3CCCC[C@@H]3N)c(-c3ccnn3C)c3c2C(=O)NC3)c1", "note": "[Example 84, 6-((1R,2S)-2-Aminocyclohexylamino)-7-(1-methyl-1H-pyrazol-5-yl)-4-(m-tolylamino)-1H-pyrrolo[3,4-c]pyridin-3(2H)-one]", "IC50": 20},
      {"smiles": "CC(C)C[C@@H](Nc1nc(-c2cncs2)c2c(c1F)CNC2=O)C(N)=O", "note": "[Example 118, (R)-2-(7-Fluoro-3-oxo-4-(thiazol-5-yl)-2,3-dihydro-1H-pyrrolo[3,4-c]pyridin-6-ylamino)-4-methylpentanamide]", "IC50": 12.6},
      {"smiles": "Cc1cccc(Nc2nc(N[C@@H]3CCCC(F)(F)[C@@H]3N)cc3c2C(=O)NC3)c1", "note": "(relative stereo) [Example 83, 6-(cis-2-Amino-3,3-difluorocyclohexylamino)-4-(m-tolylamino)-1H-pyrrolo[3,4-c]pyridin-3(2H)-one]", "IC50": 251},
      {"smiles": "Cn1cc(-c2nc(N[C@@H]3CCOC[C@@H]3N)cc3c2C(=O)NC3)cn1", "note": "[Example 27, 6-((3R,4R)-3-Aminotetrahydro-2H-pyran-4-ylamino)-4-(1-methyl-1H-pyrazol-4-yl)-1H-pyrrolo[3,4-c]pyridin-3(2H)-one]", "IC50": 39.8},
      {"smiles": "Cc1cccc(Nc2nc(NC3CCCCC3)nc3c2C(=O)NC3)c1", "note": "[Example 10, 2-(Cyclohexylamino)-4-(m-tolylamino)-6,7-dihydro-5H-pyrrolo[3,4-d]pyrimidin-5-one]", "IC50": "> 20000"},
      {"smiles": "Cc1cccc(Nc2nc(N[C@@H]3CCOC[C@@H]3N)cc3c2C(=O)NC3)c1", "note": "[Example 85, 6-((3R,4R)-3-Aminotetrahydro-2H-pyran-4-ylamino)-4-(m-tolylamino)-1H-pyrrolo[3,4-c]pyridin-3(2H)-one]", "IC50": 3.98},
      {"smiles": "Cc1cccc(Nc2nc(N3CCCCC3CN)nc3c2C(=O)NC3)c1", "note": "(centres unmarked) [Example 32, 2-(2-(Aminomethyl)piperidin-1-yl)-4-(m-tolylamino)-6,7-dihydro-5H-pyrrolo[3,4-c]pyrimidin-5-one]", "IC50": 3980},
      {"smiles": "Cc1cccc(Nc2nc(N[C@@H]3CCCC[C@@H]3N(C)C)nc3c2C(=O)NC3)c1", "note": "[Example 37, 2-((1R,2S)-2-(Dimethylamino)cyclohexylamino)-4-(m-tolylamino)-6,7-dihydro-5H-pyrrolo[3,4-d]pyrimidin-5-one]", "IC50": 1000},
      {"smiles": "COC[C@H](N)CNc1cc2c(c(-c3cnn(C)c3)n1)C(=O)NC2", "note": "[Example 91, (R)-6-(2-Amino-3-methoxypropylamino)-4-(1-methyl-1H-pyrazol-4-yl)-1H-pyrrolo[3,4-c]pyridin-3(2H)-one]", "IC50": 251},
      {"smiles": "Cc1ccc(-c2nc(N[C@H](CC(C)C)C(N)=O)c(F)c3c2C(=O)NC3)s1", "note": "[Example 111, (R)-2-(7-Fluoro-4-(5-methylthiophen-2-yl)-3-oxo-2,3-dihydro-1H-pyrrolo[3,4-c]pyridin-6-ylamino)-4-methylpentanamide]", "IC50": 7.94},
      {"smiles": "Cn1ccc(-c2nc(N[C@@H]3CCCC[C@@H]3N)c(F)c3c2C(=O)NC3)n1", "note": "[Example 121]", "IC50": 3980},
      {"smiles": "N[C@@H]1[C@H](Nc2nc(-c3cnn(C4CC4)c3)c3c(c2F)CNC3=O)CCCC1(F)F", "note": "(relative stereo) [Example 69, 6-(cis-2-amino-3,3-difluorocyclohexylamino)-4-(1-cyclopropyl-1H-pyrazol-4-yl)-7-fluoro-1H-pyrrolo[3,4-c]pyridin-3(2H)-one]", "IC50": 158},
      {"smiles": "N[C@H]1CCCC[C@H]1Nc1nc(-c2cnn3ccccc23)c2c(c1F)CNC2=O", "note": "[Example 31, 6-((1R,2S)-2-Aminocyclohexylamino)-7-fluoro-4-(pyrazolo[1,5-a]pyridin-3-yl)-1H-pyrrolo[3,4-c]pyridin-3(2H)-one]", "IC50": 2.51},
      {"smiles": "N[C@H]1COCC[C@H]1Nc1nc(-c2cnn3ccccc23)c2c(c1F)CNC2=O", "note": "[Example 92, 6-((3R,4R)-3-Aminotetrahydro-2H-pyran-4-ylamino)-7-fluoro-4-(pyrazolo[1,5-a]pyridin-3-yl)-1H-pyrrolo[3,4-c]pyridin-3(2H)-one]", "IC50": 12.6},
      {"smiles": "CC(C)C[C@@H](Nc1nc(-c2cnn(C3CC3)c2)c2c(c1F)CNC2=O)C(N)=O", "note": "[Example 72, (R)-2-(4-(1-Cyclopropyl-1H-pyrazol-4-yl)-7-fluoro-3-oxo-2,3-dihydro-1H-pyrrolo[3,4-c]pyridin-6-ylamino)-4-methylpentanamide]", "IC50": 31.6},
      {"smiles": "N[C@H]1COCC[C@H]1Nc1nc(-c2cccs2)c2c(c1F)CNC2=O", "note": "[Example 127, 6-((3R,4R)-3-Aminotetrahydro-2H-pyran-4-ylamino)-7-fluoro-4-(thiophen-2-yl)-1H-pyrrolo[3,4-c]pyridin-3(2H)-one]", "IC50": 6.31},
      {"smiles": "Cc1cccc(Nc2nc(NCC(C)(C)N)nc3c2C(=O)NC3)c1", "note": "[Example 41, 2-(2-Amino-2-methylpropylamino)-4-(m-tolylamino)-6,7-dihydro-5H-pyrrolo[3,4-c]pyrimidin-5-one]", "IC50": 1260},
      {"smiles": "Cn1cc(-c2nc(N[C@@H]3CCCC[C@@H]3N)nc3c2C(=O)NC3)cn1", "note": "[Example 14, 2-((1R,2S)-2-Aminocyclohexylamino)-4-(1-methyl-1H-pyrazol-4-yl)-6,7-dihydro-5H-pyrrolo[3,4-d]pyrimidin-5-one]", "IC50": 126},
      {"smiles": "CC(C)C[C@@H](Nc1nc(-c2cccs2)c2c(c1F)CNC2=O)C(N)=O", "note": "[Example 126, (R)-2-(7-Fluoro-3-oxo-4-(thiophen-2-yl)-2,3-dihydro-1H-pyrrolo[3,4-c]pyridin-6-ylamino)-4-methylpentanamide]", "IC50": 7.94}
    ]}
  ]
}
